The record followed here is patent US20200055839A1 (priority 2017, published 2020).

The structures appear in SMILES notation. pEC50: −log10 of the molar value.

The assay relates to NL-RLuc virus. In words: Inhibition of HIV replication (NL-RLuc virus, luciferase readout in MT-2 cells). The assay is classed as cell-based. As to conditions: Human immunodeficiency virus 1, MT2, 120 h, MT-2 cells infected with NL-RLuc virus, 5 days of incubation, 10% FBS, at least 2 experiments. A digest of the protocol: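 EC50 derived via median effect equation from at least 2 experiments, using luciferase expression as virus-growth readout. Replication-competent NL-RLuc reporter virus (nef partly replaced by Renilla luciferase) infected MT-2 cells with serial compound dilutions; 5-day incubation in RPMI 1640 plus 10% FBS.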
As usually defined, the pEC50 is −log10 of the EC50, conventionally taken in molar units. On to `Cc1ncc(-c2ccc(OCCc3ccccc3F)c(F)c2)c(N2CCC(C)(C)CC2)c1[C@H](OC(C)(C)C)C(=O)O` [Example 128, (S)-2-(tert-Butoxy)-2-(4-(4,4-dimethylpiperidin-1-yl)-5-(3-fluoro-4-(2-fluorophenethoxy)phenyl)-2-methylpyridin-3-yl)acetic acid], for which the pEC50 was 8.70.
The figure for `Cc1ncc(-c2cc(F)c(F)c(F)c2)c(N2CCC(C)(C)CC2)c1[C@H](OC(C)(C)C)C(=O)O` [Example 129, (2S)-2-(tert-Butoxy)-2-[4-(4,4-dimethylpiperidin-1-yl)-2-methyl-5-(3,4,5-trifluorophenyl)pyridin-3-yl]acetic acid] is 8.52; for `Cc1ncc(-c2cc(F)ccc2F)c(N2CCC(C)(C)CC2)c1[C@H](OC(C)(C)C)C(=O)O` [Example 130, (2S)-2-(tert-Butoxy)-2-[5-(2,5-difluorophenyl)-4-(4,4-dimethylpiperidin-1-yl)-2-methylpyridin-3-yl]acetic acid] it is 7.89.
Turning to `Cc1ncc(-c2cccc(F)c2)c(N2CCC(C)(C)CC2)c1[C@H](OC(C)(C)C)C(=O)O` [Example 133, (2S)-2-(tert-Butoxy)-2-[4-(4,4-dimethylpiperidin-1-yl)-5-(3-fluorophenyl)-2-methylpyridin-3-yl]acetic acid], the pEC50 was 8.40.
The figure for `Cc1ncc(-c2ccccc2)c(N2CCC(C)(C)CC2)c1[C@H](OC(C)(C)C)C(=O)O` [Example 134, (2S)-2-(tert-Butoxy)-2-[4-(4,4-dimethylpiperidin-1-yl)-2-methyl-5-phenylpyridin-3-yl]acetic acid] is 8.15.
`Cc1ncc(-c2ccc(F)cc2)c(N2CCC(C)(C)CC2)c1[C@H](OC(C)(C)C)C(=O)O` [Example 135, (2S)-2-(tert-Butoxy)-2-[4-(4,4-dimethylpiperidin-1-yl)-5-(4-fluorophenyl)-2-methylpyridin-3-yl]acetic acid] showed a pEC50 of 8.52.
As to `COc1ccc(-c2cnc(C)c([C@H](OC(C)(C)C)C(=O)O)c2N2CCC(C)(C)CC2)cc1` [Example 136, (2S)-2-(tert-Butoxy)-2-[4-(4,4-dimethylpiperidin-1-yl)-5-(4-methoxyphenyl)-2-methylpyridin-3-yl]acetic acid], the pEC50 is 8.70.
Molecule `Cc1ccccc1-c1cnc(C)c([C@H](OC(C)(C)C)C(=O)O)c1N1CCC(C)(C)CC1` [Example 137, (2S)-2-(tert-Butoxy)-2-[4-(4,4-dimethylpiperidin-1-yl)-2-methyl-5-(2-methylphenyl)pyridin-3-yl]acetic acid] had a pEC50 of 7.28.
In turn, `Cc1ncc(-c2ccccc2-c2ccccc2)c(N2CCC(C)(C)CC2)c1[C@H](OC(C)(C)C)C(=O)O` [Example 138, (2S)-2-(5-{[1,1′-Biphenyl]-2-yl}-4-(4,4-dimethylpiperidin-1-yl)-2-methylpyridin-3-yl)-2-(tert-butoxy)acetic acid] had a pEC50 of 7.15.
The figure for `COc1c(F)cc(-c2c(CO)nc(C)c([C@H](OC(C)(C)C)C(=O)O)c2N2CCC(C)(C)CC2)cc1F` [Example 139, (S)-2-(tert-Butoxy)-2-(5-(3,5-difluoro-4-methoxyphenyl)-4-(4,4-dimethylpiperidin-1-yl)-6-(hydroxymethyl)-2-methylpyridin-3-yl)acetic acid] is 7.57; for `Cc1nc(CO)c(-c2ccc(F)c(F)c2)c(N2CCC(C)(C)CC2)c1[C@H](OC(C)(C)C)C(=O)O` [Example 140, (2S)-2-(tert-Butoxy)-2-[5-(3,4-difluorophenyl)-4-(4,4-dimethylpiperidin-1-yl)-6-(hydroxymethyl)-2-methylpyridin-3-yl]acetic acid] it is 7.28; for `Cc1ncc(-c2ccncc2)c(N2CCC(C)(C)CC2)c1[C@H](OC(C)(C)C)C(=O)O` [Example 141, (2S)-2-(tert-Butoxy)-2-[4-(4,4-dimethylpiperidin-1-yl)-6-methyl-[3, 4′-bipyridine]-5-yl]acetic acid] it is 8.10.
Under `Cc1cc(-c2cnc(C)c([C@H](OC(C)(C)C)C(=O)O)c2N2CCC(C)(C)CC2)ccn1` [Example 142, (2S)-2-(tert-Butoxy)-2-[4-(4,4-dimethylpiperidin-1-yl)-2′,6-dimethyl-[3, 4′-bipyridine]-5-yl]acetic acid] stands 8.22; under `Cc1ncc(-c2cccc(Cl)c2)c(N2CCC(C)(C)CC2)c1[C@H](OC(C)(C)C)C(=O)O` [Example 143, (2S)-2-(tert-Butoxy)-2-[5-(3-chlorophenyl)-4-(4,4-dimethylpiperidin-1-yl)-2-methylpyridin-3-yl]acetic acid], 8.40.
As for `Cc1ncc(-c2cccc(-c3cccc(Cl)c3)c2)c(N2CCC(C)(C)CC2)c1[C@H](OC(C)(C)C)C(=O)O` [Example 144, (2S)-2-(tert-butoxy)-2-(5-{3′-chloro-[1,1′-biphenyl]-3-yl}-4-(4,4-dimethylpiperidin-1-yl)-2-methylpyridin-3-yl)acetic acid], the pEC50 was 7.11.
Under `Cc1ncc(-c2cccc(Cl)c2F)c(N2CCC(C)(C)CC2)c1[C@H](OC(C)(C)C)C(=O)O` [Example 145, (2S)-2-(tert-Butoxy)-2-[5-(3-chloro-2-fluorophenyl)-4-(4,4-dimethylpiperidin-1-yl)-2-methylpyridin-3-yl]acetic acid] stands 8.30.
Under `Cc1ncc(-c2cccc(C(N)=O)c2)c(N2CCC(C)(C)CC2)c1[C@H](OC(C)(C)C)C(=O)O` [Example 146, (2S)-2-(tert-Butoxy)-2-[5-(3-carbamoylphenyl)-4-(4,4-dimethylpiperidin-1-yl)-2-methylpyridin-3-yl]acetic acid] stands 6.85; under `Cc1ncc(-c2cccc(C(=O)O)c2)c(N2CCC(C)(C)CC2)c1[C@H](OC(C)(C)C)C(=O)O` [Example 147, 3-{5-[(S)-(tert-butoxy) (carboxy)methyl]-4-(4,4-dimethylpiperidin-1-yl)-6-methylpyridin-3-yl}benzoic acid], 6.48.
The figure for `Cc1ncc(-c2cncc(F)c2)c(N2CCC(C)(C)CC2)c1[C@H](OC(C)(C)C)C(=O)O` [Example 148, (2S)-2-(tert-Butoxy)-2-[4-(4,4-dimethylpiperidin-1-yl)-5′-fluoro-6-methyl-[3, 3′-bipyridine]-5-yl]acetic acid] is 8.15.
Take `COc1ccc(-c2cnc(C)c([C@H](OC(C)(C)C)C(=O)O)c2N2CCC(C)(C)CC2)c(F)c1F` [Example 149, (2S)-2-(tert-Butoxy)-2-[5-(2,3-difluoro-4-methoxyphenyl)-4-(4,4-dimethylpiperidin-1-yl)-2-methylpyridin-3-yl]acetic acid]: the pEC50 was 8.22.
In turn, `COc1ccc(F)c(-c2cnc(C)c([C@H](OC(C)(C)C)C(=O)O)c2N2CCC(C)(C)CC2)c1` [Example 150, (2S)-2-(tert-Butoxy)-2-[4-(4,4-dimethylpiperidin-1-yl)-5-(2-fluoro-5-methoxyphenyl)-2-methylpyridin-3-yl]acetic acid] showed a pEC50 of 7.92.
The figure for `COc1ccc(F)cc1-c1cnc(C)c([C@H](OC(C)(C)C)C(=O)O)c1N1CCC(C)(C)CC1` [Example 151, (2S)-2-(tert-Butoxy)-2-[4-(4,4-dimethylpiperidin-1-yl)-5-(5-fluoro-2-methoxyphenyl)-2-methylpyridin-3-yl]acetic acid] is 8.22.
